Values of other authors as cited in patent US8003635B2, “Superoxide dismutase mimics for the treatment of ocular disorders and diseases” (Novartis AG, priority 2001, dated 2011).

Tests used:
[1] = tested on: light-induced retinal damage; settings: albino rats
onset of diabetes = settings: diabetogenic T-cell clone

## CC1(C)CC(O)CC(C)(C)N1[O] [4-hydroxy-2,2,6,6-tetramethylpiperidine-1-oxyl]
[1]
  light-induced retinal damage: inhibited light-induced retinal damage

## CCN1C=CC=C/C1=C1/C2=NC(=C(c3cccc[n+]3CC)C3=NC(=C(c4cccc[n+]4CC)c4ccc([n-]4)C(c4cccc[n+]4CC)=C4C=CC1=N4)C=C3)C=C2.[Cl-].[Cl-].[Cl-].[Cl-].[Cl-].[Mn+3] [AEOL10113]
Onset of diabetes
  onset of diabetes: delay the onset of diabetes

## [Cl-].[Cl-].[Mn+2].c1cc2nc(c1)CN[C@@H]1CCCC[C@H]1NCCN[C@@H]1CCCC[C@H]1NC2 [M40403]
Diabetic rats
  vascular and neural dysfunction: prevented vascular and neural dysfunction
